# Measured values: PMC5362750, “Discovery of Potent, Selective, and Orally Bioavailable Small-Molecule Modulators of the Mediator Complex-Associated Kinases CDK8 and CDK19” (Journal of Medicinal Chemistry, 2016)
# How the values were obtained:
# IGF-1R = biological target: T1, IGF-1R (Homo sapiens, UniProt P08069); test: Kinase panel (Millipore); format: biochemical; settings: 1 µM, ATP at Km
# T1 construct: purchased Millipore (KinaseProfiler) kinase panel
# FLT1 = biological target: T2, FLT1 (Homo sapiens, UniProt P17948); test: Kinase panel (Millipore); format: biochemical; settings: 1 µM, ATP at Km
# T2 construct: purchased Millipore (KinaseProfiler) kinase panel
# [1] = biological target: T3, choline transporter (CHT1) (h) (Homo sapiens, UniProt Q9GZV3); test: CEREP binding assay; settings: antagonist radioligand, read-out: % Inhibition of Control Specific Binding
# T3 construct: CEREP
# BRSK1 = biological target: T4, BRSK1 (Homo sapiens, UniProt Q8TDC3); test: Kinase panel (Millipore); format: biochemical; settings: 1 µM, ATP at Km
# T4 construct: purchased Millipore (KinaseProfiler) kinase panel
# SGK2 = biological target: T5, SGK2 (Homo sapiens, UniProt Q9HBY8); test: Kinase panel (Millipore); format: biochemical; settings: 1 µM, ATP at Km
# T5 construct: purchased Millipore (KinaseProfiler) kinase panel
# IRR = biological target: T6, IRR (Homo sapiens, UniProt P14616); test: Kinase panel (Millipore); format: biochemical; settings: 1 µM, ATP at Km
# T6 construct: purchased Millipore (KinaseProfiler) kinase panel
# FGFR2(N549H) = FGFR2(N549H) (Homo sapiens, UniProt P21802, N549H); settings: 1 µM, ATP at Km
# GSK3ALPHA = GSK3ALPHA (Homo sapiens, UniProt P49840); test: Kinase panel (Millipore); format: biochemical; settings: 1 µM, ATP at Km
# [2] = tested on: sigma (non-selective) (h); settings: 10 µM, agonist radioligand
# MAPK1 = MAPK1 (Homo sapiens, UniProt P27361); test: Kinase panel (Millipore); format: biochemical; settings: 1 µM, ATP at Km
# RSK1 = biological target: T7, RSK1 (Homo sapiens, UniProt Q15418); test: Kinase panel (Millipore); format: biochemical; settings: 1 µM, ATP at Km
# T7 construct: purchased Millipore (KinaseProfiler) kinase panel
# alpha 2B (h) = alpha 2B (h) (Homo sapiens, UniProt P18089); test: biochemical; settings: read-out: % Inhibition of Control Specific Binding
# CAMKI = CAMKI (Homo sapiens, UniProt Q14012); test: Kinase panel (Millipore); format: biochemical; settings: 1 µM, ATP at Km
# CB2 (h) = CB2 (h) (Homo sapiens, UniProt P34972); test: biochemical; settings: read-out: % Inhibition of Control Specific Binding
# ROCK-I = ROCK-I (Homo sapiens, UniProt Q13464); test: Kinase panel (Millipore); format: biochemical; settings: 1 µM, ATP at Km
# TRKB = biological target: T8, TRKB (Homo sapiens, UniProt Q16620); test: Kinase panel (Millipore); format: biochemical; settings: 1 µM, ATP at Km
# T8 construct: purchased Millipore (KinaseProfiler) kinase panel
# NK1 (h) = NK1 (h) (Homo sapiens, UniProt P25103); test: CEREP binding assay; settings: agonist radioligand, read-out: % Inhibition of Control Specific Binding
# PAK5 = PAK5 (Homo sapiens, UniProt Q9P286); test: Kinase panel (Millipore); format: biochemical; settings: 1 µM, ATP at Km
# LKB1 = biological target: T9, LKB1 (Homo sapiens, UniProt Q15831); test: Kinase panel (Millipore); format: biochemical; settings: 1 µM, ATP at Km
# T9 construct: purchased Millipore (KinaseProfiler) kinase panel
# in vivo = settings: female, dog, 0.2 mg/kg
# RSE = biological target: T10, RSE (Homo sapiens, UniProt Q06418); test: Kinase panel (Millipore); format: biochemical; settings: 1 µM, ATP at Km
# T10 construct: purchased Millipore (KinaseProfiler) kinase panel
# NMDA = settings: 10 µM, antagonist radioligand
# CAMKIDELTA = CAMKIDELTA (Homo sapiens, UniProt Q8IU85); test: Kinase panel (Millipore); format: biochemical; settings: 1 µM, ATP at Km
# MT3 (ML2) = settings: 10 µM, agonist radioligand
# MST3 = biological target: T11, MST3 (Homo sapiens, UniProt Q9Y6E0); test: Kinase panel (Millipore); format: biochemical; settings: 1 µM, ATP at Km
# T11 construct: purchased Millipore (KinaseProfiler) kinase panel
# ZIPK = ZIPK (Homo sapiens, UniProt O43293); test: Kinase panel (Millipore); format: biochemical; settings: 1 µM, ATP at Km
# BRK = biological target: T12, BRK (Homo sapiens, UniProt Q13882); test: Kinase panel (Millipore); format: biochemical; settings: 1 µM, ATP at Km
# T12 construct: purchased Millipore (KinaseProfiler) kinase panel
# MKK7BETA = biological target: T13, MKK7BETA (Homo sapiens, UniProt O14733); test: Kinase panel (Millipore); format: biochemical; settings: 1 µM, ATP at Km
# T13 construct: purchased Millipore (KinaseProfiler) kinase panel
# PKCEPSILON = biological target: T14, PKCEPSILON (Homo sapiens, UniProt Q02156); test: Kinase panel (Millipore); format: biochemical; settings: 1 µM, ATP at Km
# T14 construct: purchased Millipore (KinaseProfiler) kinase panel
# ULK2 = biological target: T15, ULK2 (Homo sapiens, UniProt Q8IYT8); test: Kinase panel (Millipore); format: biochemical; settings: 1 µM, ATP at Km
# T15 construct: purchased Millipore (KinaseProfiler) kinase panel
# CAMKIIDELTA = CAMKIIDELTA (Homo sapiens, UniProt Q13557); test: Kinase panel (Millipore); format: biochemical; settings: 1 µM, ATP at Km
# IGF-1R, ACTIVATED = biological target: T16, IGF-1R, ACTIVATED (Homo sapiens, UniProt P08069); test: Kinase panel (Millipore); format: biochemical; settings: 1 µM, ATP at Km
# T16 construct: purchased Millipore (KinaseProfiler) kinase panel
# FGR = FGR (Homo sapiens, UniProt P09769); test: Kinase panel (Millipore); format: biochemical; settings: 1 µM, ATP at Km
# PKBBETA = PKBBETA (Homo sapiens, UniProt P31751); test: Kinase panel (Millipore); format: biochemical; settings: 1 µM, ATP at Km
# ALK4 = biological target: T17, ALK4 (Homo sapiens, UniProt P36896); test: Kinase panel (Millipore); format: biochemical; settings: 1 µM, ATP at Km
# T17 construct: purchased Millipore (KinaseProfiler) kinase panel
# [3] = female, NMRI, mouse, in vivo
# ERBB4 = biological target: T18, ERBB4 (Homo sapiens, UniProt Q15303); test: Kinase panel (Millipore); format: biochemical; settings: 1 µM, ATP at Km
# T18 construct: purchased Millipore (KinaseProfiler) kinase panel
# MET = biological target: T19, MET (Homo sapiens, UniProt P08581); test: Kinase panel (Millipore); format: biochemical; settings: 1 µM, ATP at Km
# T19 construct: purchased Millipore (KinaseProfiler) kinase panel
# GR (h) = biological target: T20, GR (h) (Homo sapiens, UniProt P04150); test: CEREP binding assay; settings: agonist radioligand, read-out: % Inhibition of Control Specific Binding
# T20 construct: CEREP
# PLK1 = PLK1 (Homo sapiens, UniProt P53350); test: Kinase panel (Millipore); format: biochemical; settings: 1 µM, ATP at Km
# EPHA4 = biological target: T21, EPHA4 (Homo sapiens, UniProt P54764); test: Kinase panel (Millipore); format: biochemical; settings: 1 µM, ATP at Km
# T21 construct: purchased Millipore (KinaseProfiler) kinase panel
# CCR2 (h) = biological target: T22, CCR2 (h) (Homo sapiens, UniProt P41597); test: CEREP binding assay; settings: agonist radioligand, read-out: % Inhibition of Control Specific Binding
# T22 construct: purchased Millipore (KinaseProfiler) kinase panel
# PIM-2 = PIM-2 (Homo sapiens, UniProt Q9P1W9); test: Kinase panel (Millipore); format: biochemical; settings: 1 µM, ATP at Km
# PIM-2, sequence (Q9P1W9 whole entry): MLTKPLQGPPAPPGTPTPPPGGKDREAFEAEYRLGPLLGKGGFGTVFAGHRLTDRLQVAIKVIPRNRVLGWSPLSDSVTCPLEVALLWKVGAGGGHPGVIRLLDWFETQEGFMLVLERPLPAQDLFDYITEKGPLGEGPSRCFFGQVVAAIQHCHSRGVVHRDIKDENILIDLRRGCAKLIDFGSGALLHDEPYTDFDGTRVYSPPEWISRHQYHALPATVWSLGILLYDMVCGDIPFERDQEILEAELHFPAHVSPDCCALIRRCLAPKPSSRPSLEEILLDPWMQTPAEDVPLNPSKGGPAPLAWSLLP
# ZIPK, sequence (O43293 whole entry): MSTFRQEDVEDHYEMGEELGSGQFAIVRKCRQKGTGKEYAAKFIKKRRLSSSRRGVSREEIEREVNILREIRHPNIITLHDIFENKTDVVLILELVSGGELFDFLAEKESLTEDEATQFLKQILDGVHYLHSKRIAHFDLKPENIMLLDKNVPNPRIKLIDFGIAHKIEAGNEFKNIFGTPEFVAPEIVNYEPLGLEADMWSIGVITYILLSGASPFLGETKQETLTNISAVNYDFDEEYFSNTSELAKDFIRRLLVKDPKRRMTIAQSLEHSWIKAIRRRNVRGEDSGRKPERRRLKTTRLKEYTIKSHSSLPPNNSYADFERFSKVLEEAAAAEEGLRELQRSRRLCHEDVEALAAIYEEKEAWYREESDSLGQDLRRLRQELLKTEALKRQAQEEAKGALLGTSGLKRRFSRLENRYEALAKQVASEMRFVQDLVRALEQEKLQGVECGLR
# GSK3ALPHA, sequence (P49840 whole entry): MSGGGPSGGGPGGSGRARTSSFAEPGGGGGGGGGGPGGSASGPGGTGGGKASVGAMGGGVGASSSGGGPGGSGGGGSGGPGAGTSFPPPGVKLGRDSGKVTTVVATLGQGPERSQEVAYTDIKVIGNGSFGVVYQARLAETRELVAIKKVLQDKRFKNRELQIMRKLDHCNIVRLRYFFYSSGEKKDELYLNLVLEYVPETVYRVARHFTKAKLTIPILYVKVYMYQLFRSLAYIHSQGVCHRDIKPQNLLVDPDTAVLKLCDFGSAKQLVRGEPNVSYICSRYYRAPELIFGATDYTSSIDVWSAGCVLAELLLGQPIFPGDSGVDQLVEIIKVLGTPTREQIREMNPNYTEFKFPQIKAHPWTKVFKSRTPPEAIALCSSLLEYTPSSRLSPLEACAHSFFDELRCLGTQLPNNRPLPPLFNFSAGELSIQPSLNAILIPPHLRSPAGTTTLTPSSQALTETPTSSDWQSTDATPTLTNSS
# FGR, sequence (P09769 whole entry): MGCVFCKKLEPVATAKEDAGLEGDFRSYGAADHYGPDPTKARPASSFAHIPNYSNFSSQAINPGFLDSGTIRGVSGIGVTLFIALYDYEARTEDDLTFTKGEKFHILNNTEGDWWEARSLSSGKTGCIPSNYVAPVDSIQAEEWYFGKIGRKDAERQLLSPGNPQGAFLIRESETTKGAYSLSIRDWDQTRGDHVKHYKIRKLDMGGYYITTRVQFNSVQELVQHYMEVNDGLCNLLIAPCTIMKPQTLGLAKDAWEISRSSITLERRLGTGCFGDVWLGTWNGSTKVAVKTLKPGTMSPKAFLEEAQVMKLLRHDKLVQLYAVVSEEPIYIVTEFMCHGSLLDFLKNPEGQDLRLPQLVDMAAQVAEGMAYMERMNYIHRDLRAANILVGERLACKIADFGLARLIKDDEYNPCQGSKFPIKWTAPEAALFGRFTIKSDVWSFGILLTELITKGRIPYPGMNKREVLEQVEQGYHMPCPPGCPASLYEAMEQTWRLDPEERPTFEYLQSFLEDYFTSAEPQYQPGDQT
# CAMKI, sequence (Q14012 whole entry): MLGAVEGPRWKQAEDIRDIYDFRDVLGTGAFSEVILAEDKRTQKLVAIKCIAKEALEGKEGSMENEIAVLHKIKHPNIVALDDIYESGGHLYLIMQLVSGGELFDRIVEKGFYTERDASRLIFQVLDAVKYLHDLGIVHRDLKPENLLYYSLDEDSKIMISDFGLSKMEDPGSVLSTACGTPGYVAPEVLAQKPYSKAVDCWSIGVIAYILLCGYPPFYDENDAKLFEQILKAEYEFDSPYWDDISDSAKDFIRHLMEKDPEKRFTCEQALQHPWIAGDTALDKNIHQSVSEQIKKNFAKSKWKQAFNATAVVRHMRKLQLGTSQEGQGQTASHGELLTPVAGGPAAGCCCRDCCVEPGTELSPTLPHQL
# T9 sequence (Q15831 whole entry): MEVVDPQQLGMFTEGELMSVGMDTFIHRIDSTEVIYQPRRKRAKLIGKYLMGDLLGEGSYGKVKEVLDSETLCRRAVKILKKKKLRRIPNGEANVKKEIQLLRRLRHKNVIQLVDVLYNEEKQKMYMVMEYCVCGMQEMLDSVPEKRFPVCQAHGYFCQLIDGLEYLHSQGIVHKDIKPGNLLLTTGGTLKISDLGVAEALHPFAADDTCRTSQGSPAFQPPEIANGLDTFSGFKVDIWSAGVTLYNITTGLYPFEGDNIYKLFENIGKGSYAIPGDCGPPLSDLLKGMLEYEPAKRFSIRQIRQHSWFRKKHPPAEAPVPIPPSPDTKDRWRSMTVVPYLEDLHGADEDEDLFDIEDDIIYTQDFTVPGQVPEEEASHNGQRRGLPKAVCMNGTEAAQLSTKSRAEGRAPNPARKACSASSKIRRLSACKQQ
# T9 sequence (Q7RTN6 whole entry partner): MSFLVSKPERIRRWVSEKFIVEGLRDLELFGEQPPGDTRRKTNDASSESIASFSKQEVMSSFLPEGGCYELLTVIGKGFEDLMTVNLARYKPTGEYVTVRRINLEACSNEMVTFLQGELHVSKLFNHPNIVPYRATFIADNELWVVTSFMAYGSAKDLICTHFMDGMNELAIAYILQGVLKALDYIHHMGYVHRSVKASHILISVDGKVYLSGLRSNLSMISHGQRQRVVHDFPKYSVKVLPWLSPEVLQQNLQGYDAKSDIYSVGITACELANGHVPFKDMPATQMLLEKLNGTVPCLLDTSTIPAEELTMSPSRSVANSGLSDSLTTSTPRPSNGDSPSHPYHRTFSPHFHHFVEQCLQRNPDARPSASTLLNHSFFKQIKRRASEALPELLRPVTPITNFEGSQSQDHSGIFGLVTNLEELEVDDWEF
# T9 sequence (Q9Y376 whole entry partner): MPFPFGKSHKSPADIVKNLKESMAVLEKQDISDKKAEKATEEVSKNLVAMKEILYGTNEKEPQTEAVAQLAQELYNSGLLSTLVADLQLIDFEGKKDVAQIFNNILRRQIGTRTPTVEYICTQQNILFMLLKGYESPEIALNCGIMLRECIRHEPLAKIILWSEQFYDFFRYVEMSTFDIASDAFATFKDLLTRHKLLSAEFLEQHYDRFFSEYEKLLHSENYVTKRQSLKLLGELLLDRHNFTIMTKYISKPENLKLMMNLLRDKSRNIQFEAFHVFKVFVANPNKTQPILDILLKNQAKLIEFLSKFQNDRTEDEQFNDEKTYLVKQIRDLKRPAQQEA
# T19 sequence (P08581 25-1390): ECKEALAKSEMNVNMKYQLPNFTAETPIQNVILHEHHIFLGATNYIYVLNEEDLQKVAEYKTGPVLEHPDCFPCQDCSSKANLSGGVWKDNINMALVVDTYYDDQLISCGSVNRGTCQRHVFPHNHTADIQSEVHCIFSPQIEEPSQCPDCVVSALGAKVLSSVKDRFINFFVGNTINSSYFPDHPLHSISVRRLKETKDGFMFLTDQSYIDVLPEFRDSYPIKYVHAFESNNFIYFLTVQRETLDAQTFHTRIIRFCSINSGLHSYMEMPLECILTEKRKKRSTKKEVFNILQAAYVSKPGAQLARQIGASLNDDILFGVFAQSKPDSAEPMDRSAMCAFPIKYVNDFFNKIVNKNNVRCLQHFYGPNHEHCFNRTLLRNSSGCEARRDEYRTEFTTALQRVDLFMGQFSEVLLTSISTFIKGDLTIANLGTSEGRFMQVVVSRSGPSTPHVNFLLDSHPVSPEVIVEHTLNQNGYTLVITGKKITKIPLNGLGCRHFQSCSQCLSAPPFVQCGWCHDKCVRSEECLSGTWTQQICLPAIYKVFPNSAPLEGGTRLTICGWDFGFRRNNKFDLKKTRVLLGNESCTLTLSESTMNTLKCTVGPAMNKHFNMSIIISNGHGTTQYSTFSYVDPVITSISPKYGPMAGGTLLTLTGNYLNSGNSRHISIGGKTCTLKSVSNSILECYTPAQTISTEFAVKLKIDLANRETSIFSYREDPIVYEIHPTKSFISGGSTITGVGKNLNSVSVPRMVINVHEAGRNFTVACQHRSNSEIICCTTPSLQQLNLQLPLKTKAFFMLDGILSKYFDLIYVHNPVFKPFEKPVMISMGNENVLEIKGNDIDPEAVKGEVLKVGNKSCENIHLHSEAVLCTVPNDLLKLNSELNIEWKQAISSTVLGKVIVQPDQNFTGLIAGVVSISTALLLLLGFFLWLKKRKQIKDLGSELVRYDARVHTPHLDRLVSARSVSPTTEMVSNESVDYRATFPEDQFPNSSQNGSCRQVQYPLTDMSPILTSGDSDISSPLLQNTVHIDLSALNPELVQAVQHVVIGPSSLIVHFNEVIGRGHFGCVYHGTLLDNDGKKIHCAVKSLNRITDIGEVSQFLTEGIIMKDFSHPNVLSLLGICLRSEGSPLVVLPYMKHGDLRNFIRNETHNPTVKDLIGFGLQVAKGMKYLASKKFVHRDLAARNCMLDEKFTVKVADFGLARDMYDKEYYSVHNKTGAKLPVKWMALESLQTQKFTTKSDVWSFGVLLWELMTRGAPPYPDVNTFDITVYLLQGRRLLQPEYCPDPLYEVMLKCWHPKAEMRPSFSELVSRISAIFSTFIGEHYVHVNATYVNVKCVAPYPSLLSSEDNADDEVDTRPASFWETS
compound,measurement,setting,value
"Cn1ncc2cc(-c3cnc(N)c(Cl)c3N3CCC4(CCNC4=O)CC3)ccc21 [Compound 109, 8-(2-Amino-3-chloro-5-(1-methyl-1H-indazol-5-yl)pyridin-4-yl)-2,8-diazaspiro[4.5]decan-1-one]",% effect,IGF-1R,-26%
same,% effect,FLT1,-8%
same,inhibition at 10 µM,[1],4%
same,% effect,BRSK1,7%
same,% effect,SGK2,-3%
same,% effect,IRR,5%
same,% effect,FGFR2(N549H),1%
same,% effect,GSK3ALPHA,-18%
same,% Inhibition of Control Specific Binding,[2],12%
same,% effect,MAPK1,7%
same,% effect,RSK1,13%
same,inhibition at 10 µM,alpha 2B (h),10%
same,% effect,CAMKI,-3%
same,inhibition at 10 µM,CB2 (h),29%
same,% effect,ROCK-I,6%
same,% effect,TRKB,-11%
same,inhibition at 10 µM,NK1 (h),25%
same,% effect,PAK5,-11%
same,% effect,LKB1,5%
same,Vd,in vivo,1.4 L/kg
same,clearance,in vivo; iv,17.8 mL/min/kg
same,% effect,RSE,1%
same,% Inhibition of Control Specific Binding,NMDA,0%
same,% effect,CAMKIDELTA,8%
same,% Inhibition of Control Specific Binding,MT3 (ML2),71%
same,% effect,MST3,-11%
same,% effect,ZIPK,6%
same,% effect,BRK,13%
same,% effect,MKK7BETA,-15%
same,% effect,PKCEPSILON,-21%
same,% effect,ULK2,12%
same,% effect,CAMKIIDELTA,7%
same,% effect,"IGF-1R, ACTIVATED",1%
same,% effect,FGR,-2%
same,% effect,PKBBETA,-21%
same,% effect,ALK4,2%
same,LBF,[3],10%
same,% effect,ERBB4,-28%
same,% effect,MET,1%
same,inhibition at 10 µM,GR (h),-1%
same,% effect,PLK1,-3%
same,% effect,EPHA4,5%
same,inhibition at 10 µM,CCR2 (h),-9%
same,% effect,PIM-2,-1%
